{"source": "PubChem BioAssay AID258", "about": "(DTP/NCI, 2004)", "system": "CD2F1 mice, L1210 leukemia sc, survival T/C", "test": "NCI In Vivo Anticancer Drug Screen. Data for tumor model L1210 Leukemia (subcutaneous) in CD2F1 (CDF1) mice", "conditions": "endpoint: median survival time, higher = longer survival", "method_in_brief": "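Read-out: survival or tumor size. Value = treated (T) / vehicle control (C). Transplantable tumor in mice.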", "note": "Values joined by “and” are separate entries in the source; they are usually repeats but may differ in a detail not shown here. Equal entries are not always repeated. Inconclusive results and toxic doses are left out.", "data": [{"smiles": "CN(C)CCN1C(=O)c2cccc3cc(N)cc(c23)C1=O", "values": [{"measurement": "T/C", "setting": "dose: 5.0 mg/kg/injection, schedule: Q01DX009 (ip), vehicle: acid diluted with saline", "result": "102 % of control and 105 % of control and 118 % of control"}, {"measurement": "T/C", "setting": "dose: 7.0 mg/kg/injection, schedule: Q01DX009 (ip), vehicle: acid diluted with saline", "result": "103 % of control and 115 % of control and 121 % of control"}, {"measurement": "T/C", "setting": "dose: 10.0 mg/kg/injection, schedule: Q01DX009 (ip), vehicle: acid diluted with saline", "result": "112 % of control"}, {"measurement": "T/C", "setting": "dose: 16.0 mg/kg/injection, schedule: Q01DX009 (ip), vehicle: acid diluted with saline", "result": "150 % of control and 173 % of control"}, {"measurement": "T/C", "setting": "dose: 24.0 mg/kg/injection, schedule: Q01DX009 (ip), vehicle: acid diluted with saline", "result": "116 % of control"}]}, {"smiles": "Nc1nc2c(c(=O)[nH]1)NC(CCNc1ccc(C(=O)NC(CCC(=O)O)C(=O)O)cc1)CN2", "note": "(centres undefined)", "values": [{"measurement": "T/C", "setting": "dose: 25.0 mg/kg/injection, schedule: Q03HX Z (ip), vehicle: other", "result": "120 % of control"}, {"measurement": "T/C", "setting": "dose: 50.0 mg/kg/injection, schedule: Q03HX Z (ip), vehicle: other", "result": "120 % of control"}, {"measurement": "T/C", "setting": "dose: 100.0 mg/kg/injection, schedule: Q01DX Z (ip), vehicle: other", "result": "120 % of control"}, {"measurement": "T/C", "setting": "dose: 100.0 mg/kg/injection, schedule: Q04DX Z (ip), vehicle: other", "result": "100 % of control"}, {"measurement": "T/C", "setting": "dose: 200.0 mg/kg/injection, schedule: Q04DX Z (ip), vehicle: other", "result": "100 % of control"}, {"measurement": "T/C", "setting": "dose: 800.0 mg/kg/injection, schedule: Q01DX Z (ip), vehicle: other", "result": "100 % of control"}]}, {"smiles": "Nc1n[nH]c2ccccc12", "values": [{"measurement": "T/C", "setting": "dose: 25.0 mg/kg/injection, schedule: Q01DX005 (ip), vehicle: acid diluted with saline", "result": "102 % of control"}, {"measurement": "T/C", "setting": "dose: 25.0 mg/kg/injection, schedule: Q01DX009 (ip), vehicle: acid diluted with saline", "result": "113 % of control"}, {"measurement": "T/C", "setting": "dose: 50.0 mg/kg/injection, schedule: Q01DX005 (ip), vehicle: acid diluted with saline", "result": "106 % of control"}, {"measurement": "T/C", "setting": "dose: 50.0 mg/kg/injection, schedule: Q01DX009 (ip), vehicle: acid diluted with saline", "result": "99 % of control"}, {"measurement": "T/C", "setting": "dose: 100.0 mg/kg/injection, schedule: Q01DX005 (ip), vehicle: acid diluted with saline", "result": "104 % of control"}, {"measurement": "T/C", "setting": "dose: 100.0 mg/kg/injection, schedule: Q01DX009 (ip), vehicle: acid diluted with saline", "result": "103 % of control"}, {"measurement": "T/C", "setting": "dose: 200.0 mg/kg/injection, schedule: Q01DX005 (ip), vehicle: acid diluted with saline", "result": "110 % of control"}]}, {"smiles": "Nc1ccn([C@@H]2C=C(CO)[C@@H](O)[C@H]2O)c(=O)n1", "values": [{"measurement": "T/C", "setting": "dose: 0.13 mg/kg/injection, schedule: Q03HX024 (ip), vehicle: saline", "result": "116 % of control"}, {"measurement": "T/C", "setting": "dose: 0.19 mg/kg/injection, schedule: Q03HX024 (ip), vehicle: saline", "result": "112 % of control"}, {"measurement": "T/C", "setting": "dose: 0.3 mg/kg/injection, schedule: Q06HX018 (ip), vehicle: saline", "result": "108 % of control"}, {"measurement": "T/C", "setting": "dose: 0.44 mg/kg/injection, schedule: Q01DX009 (ip), vehicle: saline", "result": "100 % of control and 103 % of control"}, {"measurement": "T/C", "setting": "dose: 0.44 mg/kg/injection, schedule: Q03HX016 (ip), vehicle: saline", "result": "119 % of control"}, {"measurement": "T/C", "setting": "dose: 0.44 mg/kg/injection, schedule: Q03HX024 (ip), vehicle: saline", "result": "89 % of control"}, {"measurement": "T/C", "setting": "dose: 0.45 mg/kg/injection, schedule: Q01DX009 (ip), vehicle: saline", "result": "103 % of control and 113 % of control (2×)"}, {"measurement": "T/C", "setting": "dose: 0.45 mg/kg/injection, schedule: Q01DX009 (sc), vehicle: saline", "result": "99 % of control"}, {"measurement": "T/C", "setting": "dose: 0.45 mg/kg/injection, schedule: Q03HX008 (ip), vehicle: saline", "result": "118 % of control"}, {"measurement": "T/C", "setting": "dose: 0.45 mg/kg/injection, schedule: Q06HX018 (ip), vehicle: saline", "result": "163 % of control"}, {"measurement": "T/C", "setting": "dose: 0.67 mg/kg/injection, schedule: Q03HX008 (ip), vehicle: saline", "result": "119 % of control"}, {"measurement": "T/C", "setting": "dose: 0.67 mg/kg/injection, schedule: Q06HX018 (ip), vehicle: saline", "result": "214 % of control"}, {"measurement": "T/C", "setting": "dose: 0.8 mg/kg/injection, schedule: Q01DX009 (ip), vehicle: saline", "result": "157 % of control"}, {"measurement": "T/C", "setting": "dose: 0.99 mg/kg/injection, schedule: Q03HX008 (ip), vehicle: saline", "result": "120 % of control"}, {"measurement": "T/C", "setting": "dose: 1.0 mg/kg/injection, schedule: Q01DX005 (iv), vehicle: saline", "result": "151 % of control"}, {"measurement": "T/C", "setting": "dose: 1.0 mg/kg/injection, schedule: Q01DX009 (sc), vehicle: saline", "result": "180 % of control"}, {"measurement": "T/C", "setting": "dose: 1.0 mg/kg/injection, schedule: Q03HX016 (ip), vehicle: saline", "result": "161 % of control"}, {"measurement": "T/C", "setting": "dose: 1.0 mg/kg/injection, schedule: Q06HX018 (ip), vehicle: saline", "result": "108 % of control"}, {"measurement": "T/C", "setting": "dose: 1.2 mg/kg/injection, schedule: Q01DX009 (ip), vehicle: saline", "result": "189 % of control"}, {"measurement": "T/C", "setting": "dose: 1.49 mg/kg/injection, schedule: Q01DX005 (iv), vehicle: saline", "result": "97 % of control"}, {"measurement": "T/C", "setting": "dose: 1.49 mg/kg/injection, schedule: Q03HX008 (ip), vehicle: saline", "result": "89 % of control"}, {"measurement": "T/C", "setting": "dose: 1.5 mg/kg/injection, schedule: Q01DX005 (iv), vehicle: saline", "result": "168 % of control"}, {"measurement": "T/C", "setting": "dose: 1.5 mg/kg/injection, schedule: Q01DX009 (sc), vehicle: saline", "result": "182 % of control"}, {"measurement": "T/C", "setting": "dose: 2.2 mg/kg/injection, schedule: Q01DX005 (iv), vehicle: saline", "result": "162 % of control"}, {"measurement": "T/C", "setting": "dose: 2.23 mg/kg/injection, schedule: Q01DX005 (iv), vehicle: saline", "result": "89 % of control"}, {"measurement": "T/C", "setting": "dose: 2.25 mg/kg/injection, schedule: Q01DX009 (sc), vehicle: saline", "result": "97 % of control"}, {"measurement": "T/C", "setting": "dose: 3.0 mg/kg/injection, schedule: Q03HX008 (ip), vehicle: saline", "result": "154 % of control"}, {"measurement": "T/C", "setting": "dose: 3.3 mg/kg/injection, schedule: Q01DX005 (iv), vehicle: saline", "result": "90 % of control"}, {"measurement": "T/C", "setting": "dose: 4.5 mg/kg/injection, schedule: Q03HX008 (ip), vehicle: saline", "result": "113 % of control"}, {"measurement": "T/C", "setting": "dose: 4.8 mg/kg/injection, schedule: Q01DX005 (iv), vehicle: saline", "result": "86 % of control"}, {"measurement": "T/C", "setting": "dose: 5.0 mg/kg/injection, schedule: Q01DX001 (ip), vehicle: saline", "result": "118 % of control"}, {"measurement": "T/C", "setting": "dose: 9.0 mg/kg/injection, schedule: Q03HX004 (iv), vehicle: saline", "result": "152 % of control"}, {"measurement": "T/C", "setting": "dose: 10.7 mg/kg/injection, schedule: Q01DX001 (ip), vehicle: saline", "result": "123 % of control"}, {"measurement": "T/C", "setting": "dose: 11.2 mg/kg/injection, schedule: Q01DX001 (ip), vehicle: saline", "result": "110 % of control and 123 % of control"}, {"measurement": "T/C", "setting": "dose: 11.2 mg/kg/injection, schedule: Q01DX001 (iv), vehicle: saline", "result": "119 % of control"}, {"measurement": "T/C", "setting": "dose: 16.9 mg/kg/injection, schedule: Q01DX001 (iv), vehicle: saline", "result": "100 % of control"}, {"measurement": "T/C", "setting": "dose: 36.0 mg/kg/injection, schedule: Q01DX001 (ip), vehicle: saline", "result": "154 % of control"}, {"measurement": "T/C", "setting": "dose: 37.9 mg/kg/injection, schedule: Q01DX001 (iv), vehicle: saline", "result": "90 % of control"}, {"measurement": "T/C", "setting": "dose: 54.0 mg/kg/injection, schedule: Q01DX001 (ip), vehicle: saline", "result": "164 % of control"}, {"measurement": "T/C", "setting": "dose: 54.0 mg/kg/injection, schedule: Q01DX001 (iv), vehicle: saline", "result": "158 % of control"}, {"measurement": "T/C", "setting": "dose: 56.8 mg/kg/injection, schedule: Q01DX001 (iv), vehicle: saline", "result": "88 % of control"}, {"measurement": "T/C", "setting": "dose: 81.0 mg/kg/injection, schedule: Q01DX001 (ip), vehicle: saline", "result": "106 % of control"}, {"measurement": "T/C", "setting": "dose: 81.0 mg/kg/injection, schedule: Q01DX001 (iv), vehicle: saline", "result": "103 % of control"}, {"measurement": "T/C", "setting": "dose: 121.0 mg/kg/injection, schedule: Q01DX001 (iv), vehicle: saline", "result": "91 % of control"}, {"measurement": "T/C", "setting": "dose: 88.0 micrograms/kg/injection, schedule: Q03HX024 (ip), vehicle: saline", "result": "112 % of control"}, {"measurement": "T/C", "setting": "dose: 200.0 micrograms/kg/injection, schedule: Q03HX024 (ip), vehicle: saline", "result": "166 % of control"}]}, {"smiles": "O=NN(CCCl)C(=O)NC12CC3CC(CC(C3)C1)C2", "values": [{"measurement": "T/C", "setting": "dose: 6.25 mg/kg/injection, schedule: Q01DX Z (sc), vehicle: carboxymethylcellulose (CMC)", "result": "100 % of control"}, {"measurement": "T/C", "setting": "dose: 12.5 mg/kg/injection, schedule: Q01DX Z (sc), vehicle: carboxymethylcellulose (CMC)", "result": "100 % of control"}, {"measurement": "T/C", "setting": "dose: 25.0 mg/kg/injection, schedule: Q01DX Z (sc), vehicle: carboxymethylcellulose (CMC)", "result": "110 % of control"}, {"measurement": "T/C", "setting": "dose: 50.0 mg/kg/injection, schedule: Q01DX Z (sc), vehicle: carboxymethylcellulose (CMC)", "result": "325 % of control"}, {"measurement": "T/C", "setting": "dose: 100.0 mg/kg/injection, schedule: Q01DX Z (sc), vehicle: carboxymethylcellulose (CMC)", "result": "240 % of control"}]}]}
